{"source": "patent US20100240029A1", "about": "“Cholesterol-Regulating Complex of SIRT1 and LXR and Methods of Use” (Massachusetts Institute of Technology, priority 2006, published 2010)", "molecules": {"B1": {"name": "human SIRT1 protein (protein)", "chain": "MADEAALALQPGGSPSAAGADREAASSPAGEPLRKRPRRDGPGLERSPGEPGGAAPEREVPAAARGCPGAAAAALWREAEAEAAAAGGEQEAQATAAAGEGDNGPGLQGPSREPPLADNLYDEDDDDEGEEEEEAAAAAIGYRDNLLFGDEIITNGFHSCESDEEDRASHASSSDWTPRPRIGPYTFVQQHLMIGTDPRTILKDLLPETIPPPELDDMTLWQIVINILSEPPKRKKRKDINTIEDAVKLLQECKKIIVLTGAGVSVSCGIPDFRSRDGIYARLAVDFPDLPDPQAMFDIEYFRKDPRPFFKFAKEIYPGQFQPSLCHKFIALSDKEGKLLRNYTQNIDTLEQVAGIQRIIQCHGSFATASCLICKYKVDCEAVRGDIFNQVVPRCPRCPADEPLAIMKPEIVFFGENLPEQFHRAMKYDKDEVDLLIVIGSSLKVRPVALIPSSIPHEVPQILINREPLPHLHFDVELLGDCDVIINELCHRLGGEYAKLCCNPVKLSEITEKPPRTQKELAYLSELPPTPLHVSEDSSSPERTSPPDSSVIVTLLDQAAKSNDDLDVSESKGCMEEKPQEVQTSRNVESIAEQMENPDLKNVGSSTGEKNERTSVAGTVRKCWPNRVAKEQISRRLDGNQYLFLPPNRYIFHGAEVYSDSEDDVLSSSSCGSNSDSGTCQSPSLEEPMEDESEIEEFYNGLEDEPDVPERAGGAGFGTDGDDQEAINEAISVKQEVTDMNYPSNKS"}}, "key": {"[1]": {"system": "mouse ABCA1 promoter (LXRE)", "assay": "mouse ABCA1 promoter driven luciferase reporter assay in HEK293T cells", "type": "cell-based", "conditions": "for basal activity of control reporter missing the LXRE / induction of luciferase reporter driven by wildtype ABCA1 promoter: 6 h; for basal activity of control reporter missing the LXRE: 10 mM nicotinamide or 25 μM MG132; for induction of luciferase reporter driven by wildtype ABCA1 promoter: with 10 μM 22(R)—HC and 1 μM 9-cisRA, 10 mM nicotinamide, 25 μM MG132 or both; for inhibition of 22(R)—HC+9-cisRA-induced luciferase expression, wildtype ABCA1 promoter: 10 mM nicotinamide or 1 μM TSA", "protocol": "The luciferase reporter plasmid pGL3-ABCA1 was created by inserting the −847 to +244 of mouse ABCA1 promoter region into KpnI-XhoI sites of pGL3 vector (Promega, Madison, Wi). pGL3-ABCA1-LXRE, the LXRE mutant version of pGL3-ABCA1, was created by deleting the LXRE from wildtype promoter of mouse ABCA1.\nFor the luciferase assay, MEFIs or HEK293T cells plated in 24-well plates were transfected with 100 ng of pGL3-ABCA1 or pGL3-ABCA1-LXRE, and 10 ng of pRL-TK (Renilla luciferase; Promega). The cells transfected with wildtype (WT) or LXRE mutant (−LXRE) mouse ABCA1 promoter driven luciferase reporter vectors were treated with 1 μM Trichostatin A (TSA), an inhibitor of class I and II deacetylases, or 10 mM nicotinamide (Nico), or both 10 mM nicotinamide+1 μM TSA. Cells transfected with the LXRE mutant vector were incubated in DMEM with 10% FBS in the absence (solid bars) or presence (open bars) of 10 μM 22(R)—HC and 1 μM 9-cisRA (FIG. 2b). Luciferase activity was then measured by using the Dual-Luciferase Reporter Assay System (Promega) 6 or 24 h later. The final GL (firefly luciferase) activity was normalized with co-expressed RL (Renilla luciferase) activity. The experiments were performed in duplicate and were repeated 3 times.\nHEK293T cells transfected with wildtype (WT; FIG. 4g, left panel) or LXRE mutant (−LXRE; FIG. 4g, right panel) mouse ABCA1 promoter driven luciferase reporter vectors were treated with either 10 mM nicotinamide (Nico), 25 μM MG132, or both 10 mM nicotinamide+25 μM MG132, in the absence (solid bars) or presence (open bars) of 10 μM 22(R)—HC and 1 μM 9-cisRA for 6 h. Luciferase activities were measured and normalized as in Example 5."}, "HA-LXRβ": {"system": "HA-LXRβ", "assay": "HA-LXRβ protein level in HEK293T cells by western blotting", "type": "cell-based, mouse", "conditions": "6 h; for levels of HA-LXRβ protein: 1 μM TSA, 10 mM nicotinamide or 25 μM MG132", "protocol": "HEK293T cells expressing HA-LXRβ driven by an exogenous CMV promoter were transfected either with pSuper vector, or with a pSuper-SIRT1 RNAi construct. Cells were harvested 3 days after transfection and the levels of HA-LXRβ and SIRT1 were analyzed by western blotting using antibodies to HA and SIRT1. […] Since there was no detectable reduction of LXR mRNA in SIRT1−/− mice (FIG. 3a), SIRT1 regulates LXR protein levels post-transcriptionally.\nHEK293T cells expressing HA-LXRβ were treated with either control medium (FIG. 3c, lane 1), or medium with 1 μM TSA (lane 2), 10 mM nicotinamide (lane 3), 25 μM MG132 (carbobenzyloxy-Leu-Leu-Leu-al, a proteasome inhibitor) (lane 4), or 10 mM nicotinamide plus 25 μM MG132 (lane 5) for 6 h. Cells were then harvested and the levels of HA-LXRβ and SIRT1 were analyzed by western blotting using antibodies to HA (upper images) and SIRT1 (middle images). […] Since there was no detectable reduction of LXR's mRNA in SIRT1−/− mice (see Example 9, FIG. 3a), SIRT1 regulates LXR protein levels post-transcriptionally. It is believed that inhibition of SIRT1 activity by nicotinamide increases the protein levels of LXR by interfering with proteasome-mediated LXR degradation.\nThe basis for the finding that LXR activity is inversely correlated with protein levels was next examined. Since acetylation of lysine residues can block ubiquitination and SIRT1 is a deacetylase, loss of SIRT1 activity might stabilize LXR proteins by increasing the steady state level of LXR acetylation, thus inhibiting the ubiquitin/proteasome degradation pathway."}, "LXR targets": {"system": "LXR targets", "assay": "LXR target mRNAs in livers of mice fed T0901317 (real-time PCR)", "type": "in vivo, mouse", "conditions": "10 mg/kg oral gavage, 8 days", "description": "Total RNA was isolated from mouse livers, testes, thioglycolate-stimulated peritoneal macrophages, and ovaries by a Qiagen RNeasy mini-kit (Qiagen Inc., Calencia, Ca.). For real-time PCR analysis, cDNA was synthesized by SuperScript III reverse transcriptase (Invitrogen, Carlsbad, Calif.) with random primers. The resulting cDNA was then subjected to PCR analysis with gene-specific primers in the presence of Cybergreen (Qiagen Inc., Calencia, Ca.). Relative abundance of mRNA was obtained by normalization to cyclophilin levels. […] The mRNA levels of ABCA1 were quantified by phosphoimager and normalized against the corresponding actin levels.\nTo gain further insight into the effect of SIRT1 on LXR function in vivo, wildtype and SIRT1^−/− animals were analyzed for their response to 8-day oral administration of the LXR agonist T0901317 (N-(2,2,2-trifluoro-ethyl)-N-[4-(2,2,2-trifluoro-1-hydroxy-1-trifluoromethyl-ethyl)-phenyl]-benzenesulfonamide)^53.\n2-6 month old SIRT1−/− and control males were fed with T0901317 (10 mg/kg) by oral gavage, plasma were collected before and after feeding for plasma lipid analyses. […] Total RNA from liver of wildtype animals without (black filled bar) or fed with 10 mg/kg T0901317 (black striped bar) and SIRT1^−/− mice without (open bar) or with T0901317 (gray striped bar) were analyzed by real-time PCR. […]"}, "[2]": {"assay": "plasma and liver lipids of mice after 8-day oral T0901317", "type": "in vivo, mouse", "protocol": "To determine the total cholesterol levels in mouse tissues, SIRT1^−/− mice and control littermates were fasted for four hours from the beginning of the daylight cycle before sacrificing. Tissues were then harvested and weighted. Total cholesterol from liver and testis were extracted and measured by GC as described previously^70, 71. Total lipids including triglycerides were also dissolved into a solution containing 60% butanol, 13% methanol, and 27% Triton X-100, and measured with the enzymatic, colorimetric assay kits from Wako.\n2-6 month old SIRT1−/− and control males were fed with T0901317 (10 mg/kg) by oral gavage, plasma were collected before and after feeding for plasma lipid analyses. Tissues were collected after feeding for further analyses. Total RNA from liver of wildtype animals without (black filled bar) or fed with 10 mg/kg T0901317 (black striped bar) and SIRT1^−/− mice without (open bar) or with T0901317 (gray striped bar) were analyzed by real-time PCR. […] However, the induction of these targets in SIRT1^−/− mice was blunted. Total protein lysates were obtained from livers of indicated mice and analyzed for the levels of ABCA1 protein by immunoblotting (FIG. 3c). (As previously observed, ABCA1 proteins comprise multiple bands by western blotting^78.)\nPlasma results in FIG. 3, panels d, e, and f represent the same mice before and after 8-days administration of T0901317. […]"}, "[3]": {"conditions": "through induction of SREBP-1c; cited from earlier work"}, "THP-1 cells": {"system": "THP-1 cells", "assay": "apoAI-mediated [3H]cholesterol efflux from THP-1 cells", "type": "cell-based, human", "conditions": "THP-1, 10 mM nicotinamide for 48 h, efflux to 15 μg/ml apoAI for 24 h", "protocol": "For the human monocytic cell line THP-1 cells, cells were treated with 10 mM nicotinamide in RPMI1640/10% FBS for 48 h, then cholesterol loaded with 50 μg/ml of LDL and 1 μCi/ml of [^3H]cholesterol in RPMI1640/1% FBS/0.2% BSA medium for 24 h. Cells were washed with PBS and incubated in RPMI 1640/0.2% BSA with or without 15 μg/ml apoAI for 24 h. The medium and cells were then separated, and cells were lysed with 0.2N NaOH. The radioactivity recovered in the medium and cell lysates were measured and the apoAI-mediated cholesterol efflux was calculated as described above."}, "[4]": {"system": "T1, NH2-terminal HA-tagged mouse LXRβ", "T1 sequence": "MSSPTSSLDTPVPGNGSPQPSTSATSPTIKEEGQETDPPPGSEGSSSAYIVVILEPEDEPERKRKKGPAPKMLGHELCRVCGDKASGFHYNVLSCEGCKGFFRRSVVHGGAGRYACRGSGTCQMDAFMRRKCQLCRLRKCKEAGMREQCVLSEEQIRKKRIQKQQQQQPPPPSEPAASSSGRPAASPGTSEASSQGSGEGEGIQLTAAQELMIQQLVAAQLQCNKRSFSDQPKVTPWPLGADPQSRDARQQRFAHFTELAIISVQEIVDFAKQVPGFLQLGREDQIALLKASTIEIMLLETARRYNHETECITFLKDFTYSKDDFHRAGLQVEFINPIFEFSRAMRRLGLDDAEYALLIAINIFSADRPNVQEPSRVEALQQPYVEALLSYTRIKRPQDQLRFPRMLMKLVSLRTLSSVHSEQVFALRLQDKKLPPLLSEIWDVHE"}, "[5]": {"molecular_target": "T2, NH2-terminal HA-tagged mouse LXRβ", "T2 chain": "T1 sequence"}}, "note": "Where two headings read alike, the source gives them in different places. Peptide text beside a SMILES is read from it. * marks the point of attachment. Cbz = O=C(OCc1ccccc1)*"}
{"molecule": "CC(C)C[C@@H](C=O)NC(=O)[C@H](CC(C)C)NC(=O)[C@H](CC(C)C)NC(=O)OCc1ccccc1", "note": "[MG132, carbobenzyloxy-Leu-Leu-Leu-al] (Cbz-Leu-Leu-Leu-aldehyde)", "values": [{"measurement": "basal activity of control reporter missing the LXRE", "setting": "[1]", "result": "not altered"}, {"measurement": "induction of luciferase reporter driven by wildtype ABCA1 promoter", "setting": "[1]", "result": "inhibited the reporter to the same extent as nicotinamide"}, {"measurement": "levels of HA-LXRβ protein", "setting": "HA-LXRβ", "result": "increase the steady state levels of LXR"}, {"measurement": "levels of HA-LXRβ protein when SIRT1 is inhibited by nicotinamide", "setting": "HA-LXRβ; 25 μM MG132 plus 10 mM nicotinamide (lane 4 vs. lane 5)", "result": "not when SIRT1 is inhibited by nicotinamide"}]}
{"molecule": "O=S(=O)(c1ccccc1)N(CC(F)(F)F)c1ccc(C(O)(C(F)(F)F)C(F)(F)F)cc1", "note": "[T0901317, N-(2,2,2-trifluoro-ethyl)-N-[4-(2,2,2-trifluoro-1-hydroxy-1-trifluoromethyl-ethyl)-phenyl]-benzenesulfonamide]", "values": [{"measurement": "induction of LXR targets SREBP-1c, LPL and ABCA1 in liver", "setting": "LXR targets; SIRT1−/− mice", "result": "blunted"}, {"measurement": "expression of LXR targets SREBP-1c, LPL and ABCA1 at the RNA level in liver", "setting": "LXR targets; wildtype mice", "result": "significantly induced"}, {"measurement": "induction of plasma and hepatic triglyceride accumulation", "setting": "[2]; SIRT1−/− vs wildtype mice, 10 mg/kg oral, 8 days", "result": "reduced response"}, {"measurement": "plasma cholesterol levels after feeding", "setting": "[2]; SIRT1−/− vs wildtype treated mice, especially HDL size particles", "result": "Lower plasma cholesterol levels"}, {"measurement": "plasma and hepatic triglycerides", "setting": "[3]", "result": "elevation of plasma and hepatic triglycerides"}]}
{"molecule": "CC(/C=C/C(=O)NO)=C\\[C@@H](C)C(=O)c1ccc(N(C)C)cc1", "note": "[TSA, Trichostatin A]", "values": [{"measurement": "inhibition of 22(R)—HC+9-cisRA-induced luciferase expression, wildtype ABCA1 promoter", "setting": "[1]", "result": "not inhibited"}]}
{"molecule": "NC(=O)c1cccnc1", "note": "[nicotinamide]", "values": [{"measurement": "suppression of apoAI-mediated [3H]cholesterol efflux", "setting": "THP-1 cells", "result": "roughly three-fold"}, {"measurement": "inhibition of 22(R)—HC+9-cisRA-induced luciferase expression, wildtype ABCA1 promoter", "setting": "[1]", "result": 50, "unit": "%"}, {"measurement": "basal activity of control reporter missing the LXRE", "setting": "[1]", "result": "not altered"}, {"measurement": "induction of luciferase reporter driven by wildtype ABCA1 promoter", "setting": "[1]", "result": "blunted the induction"}, {"measurement": "levels of HA-LXRβ protein", "setting": "HA-LXRβ", "result": "elevated levels"}]}
{"molecule": "human SIRT1 H355Y, inactive deacetylase mutant", "values": [{"measurement": "amount of ubiquitin-conjugated LXR (anti-HA immunoprecipitation, western blot with anti-ubiquitin)", "setting": "[4]", "result": "but not the inactive mutant hSIRT1HY increased the amount of ubiquitin-conjugated LXR in transfected HEK293T cells"}]}
{"molecule": "B1", "values": [{"measurement": "amount of ubiquitin-conjugated LXR (anti-HA immunoprecipitation, western blot with anti-ubiquitin)", "setting": "[5]", "result": "expression of an active SIRT1 transgene (hSIRT1) but not the inactive mutant hSIRT1HY increased the amount of ubiquitin-conjugated LXR in transfected HEK293T cells"}]}
